Source: patent US20230364070A1, “PYRROLO[3,2-C]PYRIDIN-4-ONE DERIVATIVES USEFUL IN THE TREATMENT OF CANCER” (Scorpion Therapeutics, Inc., priority 2020, published 2023)

Assays:
Type in all cases: cell-based
[1] = target: T1, Ba/F3 cells with EGFR exon 20 NPG Ins D770_N771 (Homo sapiens, UniProt P00533, INS770NPG); assay: EGFR activity: Ba/F3 cell viability (CellTiter-Glo, 72 h), EGFR exon 20 NPG insertion; conditions: EGFR exon 20 NPG Ins D770_N771, cell viability, read-out: BaF3 NPG IC50
T1 construct: expressed in transfected cells; host or cells: Ba/F3 (murine pro-B cells), retroviral transduction, puromycin selection, IL3-independent pool

[2] = target: T2, Ba/F3 cells with EGFR exon 20 ASV Ins V769_D770 (Homo sapiens, UniProt P00533, INS769ASV); assay: EGFR activity: Ba/F3 cell viability (CellTiter-Glo, 72 h), EGFR exon 20 ASV insertion; conditions: EGFR exon 20 ASV Ins V769_D770, cell viability, read-out: BaF3 ASV IC50
T2 construct: expressed in transfected cells; host or cells: Ba/F3 (murine pro-B cells), retroviral transduction, puromycin selection, IL3-independent pool

[3] = target: T3, pEGFR in CUTO14 cells (Homo sapiens, UniProt P00533, DUP767-769); assay: Inhibitor activity on EGFR phosphorylation (pEGFR AlphaLISA, 2 h), CUTO14 cells
T3 construct: endogenous in cells; host or cells: CUTO14 cells
Experimental: CUTO14 cells were obtained from Dr. Robert C. Doebele at the University of Colorado.
Shake 350 rpm for 1 hr in the dark • 3.4 Prepare donor mix under low light conditions prior to use. Dispense 5 μL of donor mix to all the wells. Mix well on the shaker, seal and wrap in aluminum foil and incubate 1.5 hrs at room temperature in the dark • 3.5 Transfer 18.5 μL mixture to OptiPlate 384, and read using an Envision.

[4] = target: T4, Ba/F3 cells with EGFR WT (Homo sapiens, UniProt P00533); assay: EGFR activity: Ba/F3 cell viability (CellTiter-Glo, 72 h), EGFR WT; conditions: read-out: BaF3 WT IC50
T4 construct: expressed in transfected cells; host or cells: Ba/F3 (murine pro-B cells), retroviral transduction, puromycin selection, maintained with EGF
T4 sequence (P00533 25-1210): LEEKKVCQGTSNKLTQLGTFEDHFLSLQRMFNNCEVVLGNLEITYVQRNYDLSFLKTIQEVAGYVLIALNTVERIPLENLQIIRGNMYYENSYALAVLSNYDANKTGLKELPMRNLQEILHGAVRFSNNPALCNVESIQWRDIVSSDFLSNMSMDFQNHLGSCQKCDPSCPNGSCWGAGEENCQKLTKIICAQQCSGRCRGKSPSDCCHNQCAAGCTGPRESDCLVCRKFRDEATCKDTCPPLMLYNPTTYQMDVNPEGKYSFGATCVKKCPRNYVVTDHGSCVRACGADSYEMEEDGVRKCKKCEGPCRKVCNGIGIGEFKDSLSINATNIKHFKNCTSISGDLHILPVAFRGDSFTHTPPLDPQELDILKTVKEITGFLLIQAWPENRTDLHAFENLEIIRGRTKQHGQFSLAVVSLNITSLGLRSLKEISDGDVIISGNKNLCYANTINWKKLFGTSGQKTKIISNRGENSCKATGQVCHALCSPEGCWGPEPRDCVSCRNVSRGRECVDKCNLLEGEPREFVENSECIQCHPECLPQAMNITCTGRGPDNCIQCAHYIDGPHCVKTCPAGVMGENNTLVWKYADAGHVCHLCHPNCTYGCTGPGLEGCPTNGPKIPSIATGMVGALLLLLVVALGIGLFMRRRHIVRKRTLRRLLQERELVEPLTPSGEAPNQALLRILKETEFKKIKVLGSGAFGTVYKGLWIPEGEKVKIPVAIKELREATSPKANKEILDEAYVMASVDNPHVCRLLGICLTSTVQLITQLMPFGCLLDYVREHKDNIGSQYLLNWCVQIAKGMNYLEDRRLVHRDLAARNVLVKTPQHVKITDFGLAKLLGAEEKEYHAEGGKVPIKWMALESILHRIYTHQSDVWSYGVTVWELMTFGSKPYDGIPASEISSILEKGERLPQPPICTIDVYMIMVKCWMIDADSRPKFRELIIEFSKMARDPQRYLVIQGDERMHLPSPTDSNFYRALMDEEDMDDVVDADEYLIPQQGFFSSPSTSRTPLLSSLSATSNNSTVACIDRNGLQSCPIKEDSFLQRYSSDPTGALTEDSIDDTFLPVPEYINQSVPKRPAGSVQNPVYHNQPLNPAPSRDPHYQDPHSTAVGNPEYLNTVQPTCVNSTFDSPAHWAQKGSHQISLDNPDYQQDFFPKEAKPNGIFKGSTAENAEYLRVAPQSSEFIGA

T2 sequence (P00533 with tags, fused parts or gaps INS769ASV): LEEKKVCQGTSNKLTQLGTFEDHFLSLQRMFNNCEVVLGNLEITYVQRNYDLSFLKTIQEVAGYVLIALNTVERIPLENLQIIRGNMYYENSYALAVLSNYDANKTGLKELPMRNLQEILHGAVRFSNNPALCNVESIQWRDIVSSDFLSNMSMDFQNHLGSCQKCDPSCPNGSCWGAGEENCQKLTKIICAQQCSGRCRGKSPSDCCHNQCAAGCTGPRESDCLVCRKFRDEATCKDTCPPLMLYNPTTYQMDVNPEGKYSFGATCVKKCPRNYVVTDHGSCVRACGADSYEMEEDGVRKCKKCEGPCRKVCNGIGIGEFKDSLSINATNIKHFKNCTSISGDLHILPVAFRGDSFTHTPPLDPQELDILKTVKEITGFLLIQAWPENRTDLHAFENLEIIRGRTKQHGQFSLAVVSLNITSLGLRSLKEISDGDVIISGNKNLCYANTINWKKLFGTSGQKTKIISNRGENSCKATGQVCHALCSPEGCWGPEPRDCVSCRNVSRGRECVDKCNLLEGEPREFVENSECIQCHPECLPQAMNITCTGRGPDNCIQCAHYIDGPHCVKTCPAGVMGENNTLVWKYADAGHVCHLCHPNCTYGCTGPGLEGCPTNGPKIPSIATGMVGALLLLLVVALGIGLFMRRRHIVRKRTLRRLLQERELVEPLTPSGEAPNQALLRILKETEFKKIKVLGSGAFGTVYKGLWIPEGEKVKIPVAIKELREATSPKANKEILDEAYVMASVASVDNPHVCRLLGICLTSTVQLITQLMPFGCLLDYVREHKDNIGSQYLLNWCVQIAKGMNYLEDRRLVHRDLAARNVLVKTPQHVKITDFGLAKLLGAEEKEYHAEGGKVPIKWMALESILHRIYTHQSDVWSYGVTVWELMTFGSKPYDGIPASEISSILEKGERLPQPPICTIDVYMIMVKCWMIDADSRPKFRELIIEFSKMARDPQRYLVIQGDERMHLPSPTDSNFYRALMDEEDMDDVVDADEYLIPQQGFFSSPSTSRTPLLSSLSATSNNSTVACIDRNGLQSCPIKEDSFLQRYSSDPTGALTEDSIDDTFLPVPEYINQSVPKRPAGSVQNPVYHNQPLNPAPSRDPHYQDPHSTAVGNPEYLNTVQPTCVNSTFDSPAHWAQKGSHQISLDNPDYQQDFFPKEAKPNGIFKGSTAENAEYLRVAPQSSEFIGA
T3 sequence (P00533 with tags, fused parts or gaps DUP767-769): as the sequence (P00533 with tags, fused parts or gaps INS769ASV) above
T1 sequence (P00533 with tags, fused parts or gaps INS770NPG): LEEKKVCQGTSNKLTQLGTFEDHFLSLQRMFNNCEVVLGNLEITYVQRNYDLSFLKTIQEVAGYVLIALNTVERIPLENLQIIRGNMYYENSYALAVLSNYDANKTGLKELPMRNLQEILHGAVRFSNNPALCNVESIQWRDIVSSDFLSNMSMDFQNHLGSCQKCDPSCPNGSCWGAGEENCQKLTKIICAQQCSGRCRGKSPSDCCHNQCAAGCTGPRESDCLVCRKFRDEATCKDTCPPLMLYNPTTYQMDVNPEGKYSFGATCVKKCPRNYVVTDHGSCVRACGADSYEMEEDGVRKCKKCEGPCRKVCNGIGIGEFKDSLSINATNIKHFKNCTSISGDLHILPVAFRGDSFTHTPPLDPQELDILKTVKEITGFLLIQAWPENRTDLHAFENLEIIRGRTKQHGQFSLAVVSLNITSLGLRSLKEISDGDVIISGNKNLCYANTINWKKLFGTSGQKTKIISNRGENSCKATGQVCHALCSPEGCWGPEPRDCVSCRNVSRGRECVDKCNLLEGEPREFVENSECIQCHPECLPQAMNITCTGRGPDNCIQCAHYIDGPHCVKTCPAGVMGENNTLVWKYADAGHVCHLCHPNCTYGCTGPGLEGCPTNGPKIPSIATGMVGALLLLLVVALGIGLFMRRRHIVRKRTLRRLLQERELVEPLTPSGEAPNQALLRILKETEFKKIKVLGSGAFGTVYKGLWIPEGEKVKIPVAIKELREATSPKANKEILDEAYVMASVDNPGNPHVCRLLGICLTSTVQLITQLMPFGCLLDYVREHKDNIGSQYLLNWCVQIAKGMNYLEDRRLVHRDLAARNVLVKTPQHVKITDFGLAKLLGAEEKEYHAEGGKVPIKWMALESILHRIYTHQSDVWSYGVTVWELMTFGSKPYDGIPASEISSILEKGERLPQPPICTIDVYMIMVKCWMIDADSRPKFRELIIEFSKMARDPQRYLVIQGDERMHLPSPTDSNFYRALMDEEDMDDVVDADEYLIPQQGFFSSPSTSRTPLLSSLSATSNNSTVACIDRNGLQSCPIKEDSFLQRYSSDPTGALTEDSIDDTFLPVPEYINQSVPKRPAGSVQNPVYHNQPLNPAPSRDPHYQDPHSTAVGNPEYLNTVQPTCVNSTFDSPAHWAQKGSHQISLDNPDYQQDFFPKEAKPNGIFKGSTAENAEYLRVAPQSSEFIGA

CC#CC(=O)N1CC[C@@H]1COc1cnccc1-c1[nH]c2c(c1Nc1cccc(F)c1F)C(=O)NCC2 [compound 350]
IC50 [1]: < 100 nM
IC50 [2]: < 100 nM
IC50 [3]: < 100 nM
IC50 [4]: 100 to 1000 nM

CC#CC(=O)N1CC[C@@]1(C)COc1cnccc1-c1[nH]c2c(c1Nc1cccc(F)c1OC)C(=O)NCC2 [compound 357]
IC50 [1]: 100 to 1000 nM
IC50 [2]: 100 to 1000 nM
IC50 [3]: 100 to 1000 nM
IC50 [4]: > 1000 nM

CC#CC(=O)N1CC[C@@]1(C)COc1cnccc1-c1[nH]c2c(c1Nc1cccc(Cl)c1OC)C(=O)NCC2 [compound 358]
IC50 [1]: 100 to 1000 nM
IC50 [2]: 100 to 1000 nM
IC50 [3]: 100 to 1000 nM
IC50 [4]: > 1000 nM

C=C(F)C(=O)N1CC[C@@H]1COc1cnccc1-c1[nH]c2c(c1Nc1cc(F)cc(F)c1OC)C(=O)NCC2 [compound 365]
IC50 [1]: 100 to 1000 nM
IC50 [2]: 100 to 1000 nM
IC50 [3]: 100 to 1000 nM
IC50 [4]: 100 to 1000 nM

CC#CC(=O)N1CC[C@@H]1C#Cc1cnccc1-c1[nH]c2c(c1Nc1cccc(F)c1OC)C(=O)NCC2 [compound 373]
IC50 [1]: < 100 nM
IC50 [2]: < 100 nM
IC50 [3]: < 100 nM
IC50 [4]: < 100 nM

CC#CC(=O)N1CC[C@H]1C#Cc1cnccc1-c1[nH]c2c(c1Nc1cccc(F)c1OC)C(=O)NCC2 [compound 374]
IC50 [1]: < 100 nM
IC50 [2]: < 100 nM
IC50 [3]: < 100 nM
IC50 [4]: 100 to 1000 nM

C=CC(=O)NC1(C#Cc2cnccc2-c2[nH]c3c(c2Nc2cccc(Cl)c2OC)C(=O)NCC3)CCOCC1 [compound 382]
IC50 [1]: < 100 nM
IC50 [2]: < 100 nM
IC50 [3]: < 100 nM
IC50 [4]: 100 to 1000 nM

C=CC(=O)NC1(C#Cc2cnccc2-c2[nH]c3c(c2Nc2cccc(F)c2OC)C(=O)NCC3)CCOCC1 [compound 383]
IC50 [1]: < 100 nM
IC50 [2]: 100 to 1000 nM
IC50 [3]: 100 to 1000 nM
IC50 [4]: > 1000 nM

C=CC(=O)NC(C)(C)C#Cc1cnccc1-c1[nH]c2c(c1Nc1cccc(F)c1C)C(=O)NCC2 [compound 385]
IC50 [1]: < 100 nM
IC50 [2]: < 100 nM
IC50 [3]: < 100 nM
IC50 [4]: < 100 nM

C=CC(=O)N[C@@]1(C#Cc2cnccc2-c2[nH]c3c(c2Nc2cccc(F)c2C)C(=O)NCC3)CCOC1 [compound 386]
IC50 [1]: < 100 nM
IC50 [2]: < 100 nM
IC50 [3]: < 100 nM
IC50 [4]: 100 to 1000 nM

C=CC(=O)N[C@]1(C#Cc2cnccc2-c2[nH]c3c(c2Nc2cccc(F)c2C)C(=O)NCC3)CCOC1 [compound 387]
IC50 [1]: < 100 nM
IC50 [2]: < 100 nM
IC50 [3]: < 100 nM
IC50 [4]: 100 to 1000 nM

COc1c(Cl)cccc1Nc1c(-c2ccncc2C#CC(C)(C)NC(=O)/C=C/CN(C)C)[nH]c2c1C(=O)NCC2 [compound 388]
IC50 [1]: < 100 nM
IC50 [2]: < 100 nM
IC50 [3]: < 100 nM
IC50 [4]: 100 to 1000 nM

C=C(F)C(=O)NC(C)(C)C#Cc1cnccc1-c1[nH]c2c(c1Nc1cccc(F)c1OC)C(=O)NCC2 [compound 389]
IC50 [1]: < 100 nM
IC50 [2]: < 100 nM
IC50 [3]: < 100 nM
IC50 [4]: 100 to 1000 nM

C=C(F)C(=O)NC(C)(C)C#Cc1cnccc1-c1[nH]c2c(c1Nc1cccc(Cl)c1OC)C(=O)NCC2 [compound 390]
IC50 [1]: < 100 nM
IC50 [2]: < 100 nM
IC50 [3]: < 100 nM
IC50 [4]: 100 to 1000 nM

COc1c(F)cccc1Nc1c(-c2ccncc2C#CC(C)(C)NC(=O)/C=C/CN2CCOCC2)[nH]c2c1C(=O)NCC2 [compound 391]
IC50 [1]: 100 to 1000 nM
IC50 [2]: 100 to 1000 nM
IC50 [3]: 100 to 1000 nM
IC50 [4]: > 1000 nM

COc1c(F)cccc1Nc1c(-c2ccncc2C#CC(C)(C)NC(=O)/C=C/CN2CCCC2)[nH]c2c1C(=O)NCC2 [compound 392]
IC50 [1]: < 100 nM
IC50 [2]: < 100 nM
IC50 [3]: < 100 nM
IC50 [4]: 100 to 1000 nM

COc1c(F)cccc1Nc1c(-c2ccncc2C#CC(C)(C)NC(=O)/C=C/CN2CC(OC)C2)[nH]c2c1C(=O)NCC2 [compound 393]
IC50 [1]: < 100 nM
IC50 [2]: < 100 nM
IC50 [3]: < 100 nM
IC50 [4]: 100 to 1000 nM

COc1c(F)cccc1Nc1c(-c2ccncc2C#CC(C)(C)NC(=O)/C=C/CN[C@@H]2CCOC2)[nH]c2c1C(=O)NCC2 [compound 394]
IC50 [1]: 100 to 1000 nM
IC50 [2]: 100 to 1000 nM
IC50 [3]: 100 to 1000 nM
IC50 [4]: > 1000 nM

COc1c(F)cccc1Nc1c(-c2ccncc2C#CC(C)(C)NC(=O)/C=C/CN[C@H]2CCOC2)[nH]c2c1C(=O)NCC2 [compound 395]
IC50 [1]: 100 to 1000 nM
IC50 [2]: 100 to 1000 nM
IC50 [3]: 100 to 1000 nM
IC50 [4]: > 1000 nM

C=CC(=O)NC1(C#Cc2cnccc2-c2[nH]c3c(c2Nc2cccc(Cl)c2OC)C(=O)NCC3)CC(F)(F)C1 [compound 400]
IC50 [1]: < 100 nM
IC50 [2]: < 100 nM
IC50 [3]: < 100 nM
IC50 [4]: 100 to 1000 nM

C=CC(=O)NC1(C#Cc2cnccc2-c2[nH]c3c(c2Nc2cccc(F)c2OC)C(=O)NCC3)CC(F)(F)C1 [compound 401]
IC50 [1]: < 100 nM
IC50 [2]: < 100 nM
IC50 [3]: < 100 nM
IC50 [4]: 100 to 1000 nM

CC#CC(=O)N1CC[C@@H]1COc1cnccc1-c1[nH]c2c(c1Nc1cccc(F)c1Cl)C(=O)NCC2 [compound 406]
IC50 [1]: < 100 nM
IC50 [2]: < 100 nM
IC50 [3]: < 100 nM
IC50 [4]: < 100 nM

CC#CC(=O)N1CC[C@@H]1COc1cnccc1-c1[nH]c2c(c1Nc1cccc(Cl)c1F)C(=O)NCC2 [compound 407]
IC50 [1]: < 100 nM
IC50 [2]: < 100 nM
IC50 [3]: < 100 nM
IC50 [4]: < 100 nM

C=CC(=O)NC1(C#Cc2cnccc2-c2[nH]c3c(c2Nc2cccc(Cl)c2OC)C(=O)NCC3)CCN(C)CC1 [compound 411]
IC50 [1]: 100 to 1000 nM
IC50 [2]: 100 to 1000 nM
IC50 [3]: 100 to 1000 nM
IC50 [4]: > 1000 nM

COc1c(Cl)cccc1Nc1c(-c2ccncc2C#CC2(NC(=O)/C=C/CN(C)C)COC2)[nH]c2c1C(=O)NCC2 [compound 416]
IC50 [1]: 100 to 1000 nM
IC50 [2]: 100 to 1000 nM
IC50 [3]: < 100 nM
IC50 [4]: > 1000 nM

COc1c(F)cccc1Nc1c(-c2ccncc2C#CC2(NC(=O)/C=C/CN(C)C)COC2)[nH]c2c1C(=O)NCC2 [compound 417]
IC50 [1]: 100 to 1000 nM
IC50 [2]: 100 to 1000 nM
IC50 [3]: 100 to 1000 nM
IC50 [4]: > 1000 nM

COc1c(F)cccc1Nc1c(-c2ccncc2C#C[C@]2(NC(=O)/C=C/CN(C)C)CCOC2)[nH]c2c1C(=O)NCC2 [compound 418]
IC50 [1]: 100 to 1000 nM
IC50 [2]: 100 to 1000 nM
IC50 [3]: 100 to 1000 nM
IC50 [4]: > 1000 nM

COc1c(F)cccc1Nc1c(-c2ccncc2C#C[C@@]2(NC(=O)/C=C/CN(C)C)CCOC2)[nH]c2c1C(=O)NCC2 [compound 419]
IC50 [1]: 100 to 1000 nM
IC50 [2]: 100 to 1000 nM
IC50 [3]: 100 to 1000 nM
IC50 [4]: > 1000 nM

COc1c(Cl)cccc1Nc1c(-c2ccncc2C#C[C@@]2(NC(=O)/C=C/CN(C)C)CCOC2)[nH]c2c1C(=O)NCC2 [compound 420]
IC50 [1]: < 100 nM
IC50 [2]: < 100 nM
IC50 [3]: < 100 nM
IC50 [4]: 100 to 1000 nM

COc1c(Cl)cccc1Nc1c(-c2ccncc2C#C[C@]2(NC(=O)/C=C/CN(C)C)CCOC2)[nH]c2c1C(=O)NCC2 [compound 421]
IC50 [1]: < 100 nM
IC50 [2]: < 100 nM
IC50 [3]: < 100 nM
IC50 [4]: > 1000 nM

COc1c(F)cccc1Nc1c(-c2ccncc2OC[C@@]2(C)CCN2C(=O)/C=C/CN(C)C)[nH]c2c1C(=O)NCC2 [compound 422]
IC50 [1]: < 100 nM
IC50 [2]: < 100 nM
IC50 [3]: < 100 nM
IC50 [4]: 100 to 1000 nM

COc1c(F)cccc1Nc1c(-c2ccncc2OC[C@]2(C)CCN2C(=O)/C=C/CN(C)C)[nH]c2c1C(=O)NCC2 [compound 423]
IC50 [1]: < 100 nM
IC50 [2]: < 100 nM
IC50 [3]: < 100 nM
IC50 [4]: > 1000 nM
